# Data taken from ChEMBL document CHEMBL4007507 (J Med Chem, 2017).
# Activity calls are given as the source filed them. The rule behind the calls is not given here.
# How the values were obtained:
# SJSA-1 [1] = test: cells; conditions: Homo sapiens
# in vivo [2] = conditions: rat, po, 25 mg/kg
# in vivo [3] = conditions: rat, iv, 10 mg/kg
# in vivo [4] = conditions: rat, po, 25 mg/kg; remark: listed apart in the source
# in vivo [5] = conditions: rat, iv, 10 mg/kg; remark: listed apart in the source
# in vivo [6] = conditions: rat, iv, 10 mg/kg; remark: listed apart in the source
# SJSA-1 [7] = conditions: Homo sapiens, 30 mg/kg
# SJSA-1 [8] = conditions: Homo sapiens, 100 mg/kg
# SJSA-1 [9] = conditions: Homo sapiens, 50 mg/kg
# RS4-11 [10] = test: cells; conditions: Homo sapiens
# LNCaP = test: cells; conditions: Homo sapiens
# SAOS-2 = test: cells; conditions: Homo sapiens
# HCT-116 [11] = test: cells; conditions: Homo sapiens
# PC-3 = test: cells; conditions: Homo sapiens
# HCT-116 [12] = test: cells; conditions: Homo sapiens; remark: listed apart in the source
# RS4-11 [13] = conditions: Homo sapiens
# in vivo [14] = conditions: rat, po, 25 mg/kg; remark: listed apart in the source
# SJSA-1 [15] = conditions: Homo sapiens
# in vivo [16] = conditions: rat, iv, 5 mg/kg
# in vivo [17] = conditions: rat, iv, 5 mg/kg; remark: listed apart in the source
# physchem [18] = conditions: 1:1 MeOH/H2O solution
# in vivo [19] = conditions: rat, iv, 5 mg/kg; remark: listed apart in the source
# physchem [20] = conditions: 1:1 CH3CN/H2O solution
# physchem [21] = conditions: cell culture media
smiles,measurement,setting,value
O=C(O)c1ccc(NC(=O)[C@@H]2NC3(CCCCC3)[C@@]3(C(=O)Nc4cc(Cl)ccc43)[C@H]2c2cccc(Cl)c2F)cn1,IC50,SJSA-1 [1],240 nM
O=C(O)c1cccc(NC(=O)[C@@H]2NC3(CCCCC3)[C@@]3(C(=O)Nc4cc(Cl)ccc43)[C@H]2c2cccc(Cl)c2F)c1,IC50,SJSA-1 [1],760 nM
COc1cc(NC(=O)[C@@H]2NC3(CCCCC3)[C@@]3(C(=O)Nc4cc(Cl)ccc43)[C@H]2c2cccc(Cl)c2F)ccc1C(=O)O,IC50,SJSA-1 [1],120 nM
CS(=O)(=O)NC(=O)C12CCC(NC(=O)[C@@H]3NC4(CCCCC4)[C@@]4(C(=O)Nc5cc(Cl)ccc54)[C@H]3c3cccc(Cl)c3F)(CC1)CC2,IC50,SJSA-1 [1],370 nM
O=C(O)CCCNC(=O)[C@@H]1NC2(CCCCC2)[C@@]2(C(=O)Nc3cc(Cl)ccc32)[C@H]1c1cccc(Cl)c1F,IC50,SJSA-1 [1],1400 nM
Cc1nnc([C@H]2[C@H](c3cccc(Cl)c3F)[C@]3(C(=O)Nc4cc(Cl)ccc43)C3(CCCCC3)N2C)o1,IC50,SJSA-1 [1],5000 nM
CN1[C@@H](C(=O)NC23CCC(C(=O)O)(CC2)CC3)[C@H](c2cccc(Cl)c2F)[C@]2(C(=O)Nc3cc(Cl)ccc32)C12CCCCC2,half-life,in vivo [2],3.9 h
same,AUC,in vivo [3],28800 ng·h/mL
same,AUC,in vivo [4],35200 ng·h/mL
same,clearance,in vivo [5],5.87 mL/min/kg
same,Vd,in vivo [6],1.1 L/kg
same,TGI,SJSA-1 [7],Active
O=C(NC12CCC(C(=O)O)(CC1)CC2)[C@@H]1NC2(CCCCC2)[C@@]2(C(=O)Nc3cc(Cl)ccc32)[C@H]1c1cccc(Cl)c1F,half-life,in vivo [2],4.3 h
same,AUC,in vivo [3],82200 ng·h/mL
same,TGI,SJSA-1 [8],Active
same,TGI,SJSA-1 [9],Active
same,IC50,RS4-11 [10],62 nM
same,IC50,LNCaP,36 nM
same,IC50,SAOS-2,26700 nM
same,IC50,SJSA-1 [1],89 nM
same,clearance,in vivo [5],1.98 mL/min/kg
same,Vd,in vivo [6],0.734 L/kg
same,IC50,HCT-116 [11],137 nM
same,IC50,PC-3,12300 nM
same,IC50,HCT-116 [12],14000 nM
CC(=O)N1CC(NC(=O)[C@@H]2NC3(CCCCC3)[C@@]3(C(=O)Nc4cc(Cl)ccc43)[C@H]2c2cccc(Cl)c2F)C1,IC50,SJSA-1 [1],240 nM
CS(=O)(=O)NC(=O)c1ccc(NC(=O)[C@@H]2NC3(CCCCC3)[C@@]3(C(=O)Nc4cc(Cl)ccc43)[C@H]2c2cccc(Cl)c2F)cc1,IC50,SJSA-1 [1],5800 nM
O=C(O)c1ccc(NC(=O)[C@@H]2NC3(CCCCC3)[C@@]3(C(=O)Nc4cc(Cl)ccc43)[C@H]2c2cccc(Cl)c2F)cc1F,IC50,SJSA-1 [1],190 nM
COc1cc(C(=O)O)ccc1NC(=O)[C@@H]1NC2(CCCCC2)[C@@]2(C(=O)Nc3cc(Cl)ccc32)[C@H]1c1cccc(Cl)c1F,IC50,SJSA-1 [1],61 nM
O=C(NC[C@H]1CC[C@H](C(=O)O)CC1)[C@@H]1NC2(CCCCC2)[C@@]2(C(=O)Nc3cc(Cl)ccc32)[C@H]1c1cccc(Cl)c1F,IC50,SJSA-1 [1],1900 nM
O=C(NC12CC(C(=O)O)(C1)C2)[C@@H]1NC2(CCCCC2)[C@@]2(C(=O)Nc3cc(Cl)ccc32)[C@H]1c1cccc(Cl)c1F,IC50,SJSA-1 [1],540 nM
CCN1[C@@H](C(=O)NC23CCC(C(=O)O)(CC2)CC3)[C@H](c2cccc(Cl)c2F)[C@]2(C(=O)Nc3cc(Cl)ccc32)C12CCCCC2 [ALRIZOMADLIN],half-life,in vivo [2],4.6 h
same,AUC,in vivo [3],38300 ng·h/mL
same,TGI,RS4-11 [13],Dose-dependent effect
same,AUC,in vivo [4],39100 ng·h/mL
same,IC50,LNCaP,18 nM
same,IC50,SAOS-2,22700 nM
same,IC50,SJSA-1 [1],60 nM
same,clearance,in vivo [5],4.28 mL/min/kg
same,Vd,in vivo [6],1.25 L/kg
same,IC50,HCT-116 [11],104 nM
same,TGI,SJSA-1 [7],Active
same,IC50,PC-3,22000 nM
same,IC50,HCT-116 [12],8000 nM
COc1cc(C(N)=O)ccc1NC(=O)[C@@H]1NC2(CCCCC2)[C@@]2(C(=O)Nc3cc(Cl)ccc32)[C@H]1c1cccc(Cl)c1F,IC50,SJSA-1 [1],120 nM
O=C(O)c1ccc(NC(=O)[C@@H]2NC3(CCCCC3)[C@@]3(C(=O)Nc4cc(Cl)ccc43)[C@H]2c2cccc(Cl)c2F)c(F)c1,IC50,SJSA-1 [1],230 nM
O=C(N[C@H]1CC[C@@H](C(=O)O)CC1)[C@@H]1NC2(CCCCC2)[C@@]2(C(=O)Nc3cc(Cl)ccc32)[C@H]1c1cccc(Cl)c1F,IC50,SJSA-1 [1],1740 nM
CN1[C@@H](c2nc(C(=O)O)co2)[C@H](c2cccc(Cl)c2F)[C@]2(C(=O)Nc3cc(Cl)ccc32)C12CCCCC2,IC50,SJSA-1 [1],> 10000 nM
CS(=O)(=O)c1ccc(NC(=O)[C@@H]2NC3(CCCCC3)[C@@]3(C(=O)Nc4cc(Cl)ccc43)[C@H]2c2cccc(Cl)c2F)cc1,IC50,SJSA-1 [1],140 nM
O=C(N[C@H]1C[C@H](C(=O)O)C1)[C@@H]1NC2(CCCCC2)[C@@]2(C(=O)Nc3cc(Cl)ccc32)[C@H]1c1cccc(Cl)c1F,IC50,SJSA-1 [1],220 nM
CC1(C)CCC2(CC1)N[C@@H](C(=O)N[C@H]1CC[C@H](O)CC1)[C@H](c1cccc(Cl)c1F)[C@]21C(=O)Nc2cc(Cl)ccc21,IC50,SJSA-1 [1],48 nM
Cc1noc([C@H]2[C@H](c3cccc(Cl)c3F)[C@]3(C(=O)Nc4cc(Cl)ccc43)C3(CCCCC3)N2C)n1,IC50,SJSA-1 [1],12100 nM
O=C(NC1CCS(=O)(=O)CC1)[C@@H]1NC2(CCCCC2)[C@@]2(C(=O)Nc3cc(Cl)ccc32)[C@H]1c1cccc(Cl)c1F,IC50,SJSA-1 [1],540 nM
O=C(O)c1ccc(NC(=O)[C@@H]2NC3(CCCCC3)[C@@]3(C(=O)Nc4cc(Cl)ccc43)[C@H]2c2cccc(Cl)c2F)cc1,half-life,in vivo [2],4 h
same,AUC,in vivo [3],8630 ng·h/mL
same,TGI,SJSA-1 [9],Active
same,Cmax,in vivo [14],1550 ng/mL
same,AUC,in vivo [4],6800 ng·h/mL
same,clearance,in vivo [5],19.3 mL/min/kg
same,Vd,in vivo [6],2.14 L/kg
NS(=O)(=O)c1ccc(NC(=O)[C@@H]2NC3(CCCCC3)[C@@]3(C(=O)Nc4cc(Cl)ccc43)[C@H]2c2cccc(Cl)c2F)cc1,IC50,SJSA-1 [1],11200 nM
CC1(C)CCC2(CC1)N[C@@H](C(=O)Nc1ccc(C(=O)O)cc1)[C@H](c1cccc(Cl)c1F)[C@]21C(=O)Nc2cc(Cl)ccc21,half-life,in vivo [2],4.5 h
same,AUC,in vivo [3],14800 ng·h/mL
same,TGI,SJSA-1 [9],Active
same,Cmax,in vivo [14],968 ng/mL
same,TGI,SJSA-1 [15],Dose-dependent effect
same,AUC,in vivo [4],10200 ng·h/mL
same,IC50,SJSA-1 [1],13 nM
same,clearance,in vivo [5],11.5 mL/min/kg
same,Vd,in vivo [6],2.45 L/kg
CS(=O)(=O)NC(=O)[C@@H]1NC2(CCCCC2)[C@@]2(C(=O)Nc3cc(Cl)ccc32)[C@H]1c1cccc(Cl)c1F,IC50,SJSA-1 [1],8900 nM
Cc1oc([C@H]2[C@H](c3cccc(Cl)c3F)[C@]3(C(=O)Nc4cc(Cl)ccc43)C3(CCCCC3)N2C)nc1C(=O)O,IC50,SJSA-1 [1],6000 nM
CN1[C@@H](c2nc(C(=O)O)cs2)[C@H](c2cccc(Cl)c2F)[C@]2(C(=O)Nc3cc(Cl)ccc32)C12CCCCC2,IC50,SJSA-1 [1],> 10000 nM
O=C(N[C@H]1CC[C@H](C(=O)O)CC1)[C@@H]1NC2(CCCCC2)[C@@]2(C(=O)Nc3cc(Cl)ccc32)[C@H]1c1cccc(Cl)c1F,TGI,SJSA-1 [9],Active
same,IC50,SJSA-1 [1],150 nM
CN1[C@@H](c2nc(CC(=O)O)cs2)[C@H](c2cccc(Cl)c2F)[C@]2(C(=O)Nc3cc(Cl)ccc32)C12CCCCC2,IC50,SJSA-1 [1],2690 nM
Cc1nnc([C@H]2[C@H](c3cccc(Cl)c3F)[C@]3(C(=O)Nc4cc(Cl)ccc43)C3(CCCCC3)N2C)s1,IC50,SJSA-1 [1],3000 nM
O=C(O)c1ccc(NC(=O)[C@@H]2NC3(CCCCC3)[C@@]3(C(=O)Nc4cc(Cl)ccc43)[C@H]2c2cccc(Cl)c2F)o1,IC50,SJSA-1 [1],6200 nM
O=C(NC12CCC(C(=O)O)(CC1)CC2)[C@@H]1NC2(CCC(F)(F)CC2)[C@@]2(C(=O)Nc3cc(Cl)ccc32)[C@H]1c1cccc(Cl)c1F,IC50,SJSA-1 [1],170 nM
O=C(O)Cc1ccc(NC(=O)[C@@H]2NC3(CCCCC3)[C@@]3(C(=O)Nc4cc(Cl)ccc43)[C@H]2c2cccc(Cl)c2F)cc1,IC50,SJSA-1 [1],760 nM
CC(C)(C)C[C@@H]1N[C@@H](C(=O)N[C@H]2CC[C@H](O)CC2)[C@H](c2cccc(Cl)c2F)[C@]12C(=O)Nc1cc(Cl)ccc12 [SAR-405838],half-life,in vivo [2],1.6 h
same,clearance,in vivo [16],17.2 mL/min/kg
same,TGI,SJSA-1 [9],Active
same,AUC,in vivo [17],4630 ng·h/mL
same,remaining at 168 h,physchem [18],93 to 96%
same,Vd,in vivo [19],2.98 L/kg
same,remaining at 168 h,physchem [20],93 to 96%
same,remaining at 168 h,physchem [21],93 to 96%
